Data on four compounds can be found in patent publication US5244895A, “Anti-ulcer agent” (Hidaka; Hiroyoshi, priority 1991, dated 1993).

Data set [1] deals with gastric juice secretion. Description: Anti-gastric juice secretion test, intraduodenal administration (pylorus ligation). In kind it is in vivo, Crj:Wistar rat (male). Particulars: 100 mg/kg intraduodenal, 4 h after pylorus ligation; for pH of gastric juice: control 1.7; for Amount of gastric juice: control 2.6; for Free hydrochloric acid: control 116; for Total acidity: control 168. The procedure:
Each 100 mg/kg of the test compounds was administered duodenally to a male Crj:Wistar rat of 205 to 240 g body weight fasted for ca. 24 hours (7 to 8 rats per group) and immediately after the dose the pylorus was ligated under diethyl ether anesthesia. Four hours after the ligation, the animal was killed and the stomach was isolated and the amount and the pH of gastric juice and free hydrochloric acid contained in it and the total acidity of it were measured to examine the effect of inhibiting gastric juice secretion. The test compounds were dosed after dissolved in physiological saline or in physiological saline containing Tween 80 added. Five […] of physiological saline was administered to the control group.

Data set [2] relates to water immersion restriction stress ulcer. The data set can be described thus: Water immersion restriction stress ulcer, oral administration. In kind it is in vivo, Crj:Wistar rat (male). The note with it: 100 mg/kg oral; for Gastric damage index: 30 min before 6 h water immersion stress, control 15.7; for inhibition in vivo at 100 mg/kg: Rattus norvegicus, 6 h, gastric damage index vs control, water immersion stress, read-out: Inhibition rate. On the procedure:
(§1) After the stress loading, the animal was killed by exsanguination and the cardia part of stomach was ligated and then 10 ml of 1% formalin was poured into the stomach and the stomach was extirpated. […] 0.5 ml/body weight of 1% pontamine sky blue physiological saline was injected intravenously 10 minutes before the slaughter. The test compound was administered after dissolved in physiological saline or in physiological saline containing Tween 80 added. Five […] of physiological saline was administered to the control group.

Data set [3] in a line: Acute toxicity, oral administration. The data set is classed as in vivo, Sle:ICR mouse (male). Particulars: 300 mg/kg oral, 6 hours observation; for Mortality rate: deaths/mice. The procedure:
(§2) Each test compound was administered to a male Sle:ICR mouse of 29 to 32 g body weight fasted for 18 to 20 hours (5 mice per group) to examine the presence of acute toxicity.

Data set [4] concerns aspirin ulcer. Description: Anti-aspirin ulcer test, oral administration. The note with it: 100 mg/kg oral, 6 h; for Gastric damage index: 30 min before aspirin 200 mg/kg oral, control 76.0; for inhibition in vivo at 100 mg/kg: Rattus norvegicus, gastric damage index vs control, aspirin 200 mg/kg, read-out: Inhibition rate. In kind it is in vivo, Crj:Wistar rat (male). On the procedure: (§3) Each 100 mg/kg of the test compounds was administered orally to a male Crj:Wistar rat of 198 to 243 g body weight fasted for ca. 24 hours (7 to 8 rats per group) and 30 minutes after the administration 200 mg/5 ml/kg of aspirin suspended in 0.5% sodium CMC aqueous solution was administered orally. Six hours later the animals was killed by exsanguination and the cardia part of stomach was ligated and 10 ml of 1% formaline solution was poured into the stomach and the stomach was extirpated. Then, it was incised along the greater curvature side and washed with physiological saline and the major axis of the spotted and linear erosion and ulcer were measured under a steromicroscope and their total sum per head was calculated as the gastric damage index (mm) and the effect was judged by the inhibiting rate against the control group [(Gastric damage index of the control group-Gastric damage index of the test compound)/Gastric damage index of the control group×100]. 0.5 ml/body weight of 1% pontamine sky blue physiological saline was injected intravenously 10 minutes before the slaughter. The test compound was administered after dissolved in physiological saline or in physiological saline containing Tween 80 added. Five […] of physiological saline was administered to the control group.

In data set [5] the test system is water immersion restriction stress ulcer. Description: Water immersion restriction stress ulcer, intraperitoneal administration. The data set is classed as in vivo, Crj:Wistar rat (male). The note with it: 100 mg/kg intraperitoneal; for Gastric damage index: control 22.7; for Inhibition rate: gastric damage index vs control. The procedure:
as §1

Data set [6] concerns aspirin ulcer. Description: Anti-aspirin ulcer test, intraperitoneal administration. The data set is classed as in vivo, Crj:Wistar rat (male). The note with it: for Gastric damage index: 100 mg/kg intraperitoneal (abdominally injected), control 58.8; for Inhibition rate: gastric damage index vs control, 100 mg/kg intraperitoneal. On the procedure:
as §3
Each 100 mg/kg of the test compound was abdominally injected to a male Crj:Wistar rat of 210 to 265 g body weight fasted for ca. 24 hours (7 to 8 rats per group) and the procedures were carried out in a same manner as in oral administration.

Data set [7] relates to gastric juice secretion. The data set can be described thus: Anti-gastric juice secretion test, intraperitoneal administration (pylorus ligation). In kind it is in vivo, Crj:Wistar rat (male). Particulars: 100 mg/kg intraperitoneal, 30 min before pylorus ligation; for pH of gastric juice: control 1.7; for Amount of gastric juice: control 3.2; for Free hydrochloric acid: control 155; for Total acidity: control 208.

The nature of data set [8]: Acute toxicity, intraperitoneal administration. The note with it: 200 mg/kg intraperitoneal, 6 hours observation. The data set is classed as in vivo, Sle:ICR mouse (male). The procedure:
as §2

As to `CN(C(Cc1ccc(O)cc1)CN1CCN(C(=O)OCc2ccccc2)CC1)S(=O)(=O)c1cccc2cnccc12` (stereo not drawn) [(4), N-[2-(4-benzyloxycarbonylpiperazinyl)-1-(p-hydroxybenzyl)ethyl]-N-methyl-5-isoquinoline sulfonamide], in data set [1], the “pH of gastric juice” value came out at 2.3, the “Amount of gastric juice” value is 1.8 ml/100 g body weight, the Free hydrochloric acid is 36 μEq/100 g body weight and the Total acidity is on record as 74 μEq/100 g body weight. Moreover, in data set [2], the Gastric damage index turned out to be 8.4 mm and the inhibition in vivo at 100 mg/kg was 46%. Besides, in data set [3], the General condition entry is listed as “No abnormality” and the Mortality rate is recorded as 0/5. Moreover, in data set [4], the Gastric damage index is on record as 34.6 mm and the inhibition in vivo at 100 mg/kg stood at 55%.
Regarding `COc1ccc(CC(CN2CCN(C(=O)OCc3ccccc3)CC2)N(C)S(=O)(=O)c2cccc3cnccc23)cc1` (stereo not drawn) [(5), N-[2-(4-benzyloxycarbonylpiperazinyl)-1-(p-methoxybenzyl)ethyl]-N-methyl-5-isoquinoline sulfonamide], in data set [1], the “pH of gastric juice” value was found to be 2.3, the “Amount of gastric juice” value worked out at 1.8 ml/100 g body weight, the Free hydrochloric acid came out at 48 μEq/100 g body weight and the Total acidity is 80 μEq/100 g body weight. Further, in data set [2], the Gastric damage index came out at 7.7 mm and the inhibition in vivo at 100 mg/kg was 51%. In addition, in data set [3], the General condition result was “No abnormality” and the Mortality rate is on record as 0/5. In data set [4], the Gastric damage index is recorded as 36.5 mm and the inhibition in vivo at 100 mg/kg stood at 53%.
Turning to `CN(C(Cc1ccc(OS(=O)(=O)c2cccc3cnccc23)cc1)C(=O)N1CCN(c2ccccc2)CC1)S(=O)(=O)c1cccc2cnccc12` (stereo not drawn) [(13), N-[N,O-bis(5-isoquinolinesulfonyl)-N-methyltyrosyl]-4-phenylpiperizine], in data set [5], the Gastric damage index is 6.4 mm and the Inhibition rate turned out to be 72%. Further, in data set [6], the Gastric damage index is on record as 17.6 mm and the Inhibition rate is on record as 70%. In data set [1], the “pH of gastric juice” value was determined as 2.3 and the “Amount of gastric juice” value was 1.9 ml/100 g body weight. Also, in data set [2], the Gastric damage index stood at 5.4 mm and the inhibition in vivo at 100 mg/kg turned out to be 66%. In data set [4], the Gastric damage index stood at 30.3 mm and the inhibition in vivo at 100 mg/kg stood at 60%. Also, in data set [7], the “pH of gastric juice” value amounted to 2.4, the “Amount of gastric juice” value turned out to be 1.6 ml/100 g body weight, the Free hydrochloric acid was 55 μEq/100 body weight and the Total acidity is given as 102 μEq/100 body weight.
Regarding `CN(C(Cc1ccc(O)cc1)CN1CCCN(C(=O)OCc2ccccc2)CC1)S(=O)(=O)c1cccc2cnccc12` (stereo not drawn) [(14), N-[2-(4-benzyloxycarbonylhomopiperazinyl)-1-(p-hydroxybenzyl)ethyl]-N-methyl-5-isoquinoline sulfonamide], the Gastric damage index in data set [5] was 3.9 mm; in data set [6], 5.3 mm; in data set [2], 4.3 mm; in data set [4], 11.2 mm. In addition, the figures for the Inhibition rate in data set [5] and in data set [6] were 83% and 91%, respectively. Besides, the “pH of gastric juice” value in data set [1] is on record as 3.1; in data set [7] it was 3.0. The “Amount of gastric juice” value in data set [1] and in data set [7] was 0.6 ml/100 g body weight each time. The figures for the Free hydrochloric acid in data set [1] and in data set [7] were 8 μEq/100 g body weight and 4 μEq/100 body weight, respectively. Moreover, the Total acidity amounted to 11 μEq/100 g body weight in data set [1] and 17 μEq/100 body weight in data set [7]. Further, the inhibition in vivo at 100 mg/kg in data set [2] stood at 73%; in data set [4] it was 85%. In addition, the General condition entry in data set [3] and in data set [8] was “No abnormality” each time. Moreover, the Mortality rate in data set [3] and in data set [8] (deaths/mice) was 0/5 in each case.
